Publication PMC8881610 (Nature Communications, 2022)

Tests used:
[1] = biological target: GLP-1R (Homo sapiens, UniProt P43220, W214A); assay: Whole-cell binding assay, competition with 125I-GLP-1(7-36)NH2; design: Flag; expressed in transfected cells; settings: GLP-1R W214A, CHO-K1
Procedure: (§1) Human embryonic kidney 293 cells containing SV40 large T-antigen (HEK293T) were cultured in DMEM (Gibco) supplemented with 10% (v/v) fetal bovine serum (FBS, Gibco), 1 mM sodium pyruvate (Gibco) and 100 units/mL penicillin and 100 μg/mL streptomycin at 37 °C in 5% CO2. Chinese hamster ovary (CHO-K1) cells were cultured in F-12 (Gibco) containing 10% FBS, 100 units/mL penicillin and 100 μg/mL streptomycin at 37 °C in 5% CO2. For cAMP and receptor expression assays, HEK293T cells were seeded into 6-well cell culture plates at a density of 7 × 10^5 cells per well. After overnight incubation, cells were transfected with GIPR, GLP-1R or GCGR construct using Lipofectamine 2000 or Lipofectamine 3000 transfection reagent (Invitrogen). For whole-cell binding assay, CHO-K1 cells were seeded into 96-well fibronectin-treated cell culture plates at a density of 3 × 10^4 cells per well. After overnight incubation, cells were transfected with GIPR, GLP-1R or GCGR construct using Lipofectamine 2000 transfection reagent (Invitrogen). Following 24 h culturing, the transfected cells were ready for use.
(§2) For GLP-1R and GCGR, CHO-K1 cells (30,000 cells/well) were seeded into Isoplate-96 plates and incubated for 24 h at 37 °C in 5% CO2. The WT or mutant constructs were transiently transfected using Lipofectamine 2000 transfection reagent as previous described. They were then washed twice using F-12 with 0.1% BSA or 0.1% casein, 33 mM HEPES, and incubated for 2 h at 37 °C. […] Cells were washed three times with ice-cold PBS and lysed in PBS with 1% Triton X-100, 20 mM Tris-HCl. After addition of scintillation cocktail (PerkinElmer), radioactivity (CPM) was counted on a MicroBeta^2 microplate counter (PerkinElmer). Data were normalized to the WT response and analyzed using three-parameter logistic equation.

[2] = biological target: GLP-1R (Homo sapiens, UniProt P43220, Y148A); assay: as above; design: Flag; expressed in transfected cells; settings: GLP-1R Y148A, CHO-K1
Procedure: as §1, §2

[3] = biological target: GCGR (Homo sapiens, UniProt P47871, D195A); assay: cAMP accumulation assay, GCGR WT, mutant or modified constructs; type: cell-based; design: V5 (C); 6×His (C); expressed in transfected cells; host or cells: HEK293T; settings: HEK-293T, GCGR D195A; HEK293T
Procedure: as §1, with “use. […]” for “use.”
(§3) For GIPR, GLP-1R and GCGR, multi-targeting agonist stimulated cAMP accumulation was measured by a LANCE Ultra cAMP kit (PerkinElmer). After 24 h culture, the transfected cells were seeded into 384-well microtiter plates at a density of 3,000 cells per well in HBSS supplemented with 5 mM HEPES, 0.1% (w/v) BSA or 0.1% (w/v) casein and 0.5 mM 3-isobutyl-1-methylxanthine. The cells were stimulated with different concentrations of peptide agonists for 40 min at RT. Eu-cAMP tracer and ULight^TM-anti-cAMP were then diluted by cAMP detection buffer and added to the plates separately to terminate the reaction. Plates were incubated at RT for 1 h and the fluorescence intensity measured at 620 nm and […] by an EnVision multilabel plate reader (PerkinElmer).

[4] = biological target: GCGR (Homo sapiens, UniProt P47871, Q293A); assay: as above; type: cell-based; design: V5 (C); 6×His (C); expressed in transfected cells; host or cells: HEK293T; settings: GCGR Q293A, HEK293T
Procedure: as §1, with “use. […]” for “use.”
as §3

[5] = biological target: GCGR (Homo sapiens, UniProt P47871, R199A); assay: as above; type: cell-based; design: V5 (C); 6×His (C); expressed in transfected cells; host or cells: HEK293T; settings: GCGR R199A, HEK293T
Procedure: as §1, with “use. […]” for “use.”
as §3

[6] = biological target: GCGR (Homo sapiens, UniProt P47871, W87A); assay: as above; type: cell-based; design: V5 (C); 6×His (C); expressed in transfected cells; host or cells: HEK293T; settings: HEK-293T, GCGR W87A; HEK293T
Procedure: as §1, with “use. […]” for “use.”
as §3

[7] = biological target: GCGR (Homo sapiens, UniProt P47871, Y138A); assay: as above; type: cell-based; design: V5 (C); 6×His (C); expressed in transfected cells; host or cells: HEK293T; settings: HEK-293T, GCGR Y138A; HEK293T
Procedure: as §1, with “use. […]” for “use.”
as §3

[8] = biological target: GCGR (Homo sapiens, UniProt P47871, Y145A); assay: as above; type: cell-based; design: V5 (C); 6×His (C); expressed in transfected cells; host or cells: HEK293T; settings: HEK-293T, GCGR Y145A; HEK293T
Procedure: as §1, with “use. […]” for “use.”
as §3

[9] = read-out: binding pIC50 (converted)
[10] = read-out: cAMP pEC50 (converted)

GLP-1R (Homo sapiens, UniProt P43220, Y148A), sequence (P43220 24-463 Y148A): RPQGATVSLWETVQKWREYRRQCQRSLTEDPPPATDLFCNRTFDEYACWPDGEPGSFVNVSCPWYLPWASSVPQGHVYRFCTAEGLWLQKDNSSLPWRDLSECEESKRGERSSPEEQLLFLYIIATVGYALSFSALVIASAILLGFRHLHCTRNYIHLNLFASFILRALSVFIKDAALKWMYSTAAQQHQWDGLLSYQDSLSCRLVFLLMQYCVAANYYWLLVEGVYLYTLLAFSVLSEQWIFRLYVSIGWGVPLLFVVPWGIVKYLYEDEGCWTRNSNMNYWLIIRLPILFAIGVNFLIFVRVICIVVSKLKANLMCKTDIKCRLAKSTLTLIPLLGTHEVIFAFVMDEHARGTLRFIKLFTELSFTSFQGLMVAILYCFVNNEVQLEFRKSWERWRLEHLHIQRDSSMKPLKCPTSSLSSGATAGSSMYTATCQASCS
GLP-1R (Homo sapiens, UniProt P43220, W214A), sequence (P43220 24-463 W214A): as the sequence (P43220 24-463 Y148A) above, with A125Y, W191A counted along it
GCGR (Homo sapiens, UniProt P47871, R199A), sequence (P47871 26-477 R199A): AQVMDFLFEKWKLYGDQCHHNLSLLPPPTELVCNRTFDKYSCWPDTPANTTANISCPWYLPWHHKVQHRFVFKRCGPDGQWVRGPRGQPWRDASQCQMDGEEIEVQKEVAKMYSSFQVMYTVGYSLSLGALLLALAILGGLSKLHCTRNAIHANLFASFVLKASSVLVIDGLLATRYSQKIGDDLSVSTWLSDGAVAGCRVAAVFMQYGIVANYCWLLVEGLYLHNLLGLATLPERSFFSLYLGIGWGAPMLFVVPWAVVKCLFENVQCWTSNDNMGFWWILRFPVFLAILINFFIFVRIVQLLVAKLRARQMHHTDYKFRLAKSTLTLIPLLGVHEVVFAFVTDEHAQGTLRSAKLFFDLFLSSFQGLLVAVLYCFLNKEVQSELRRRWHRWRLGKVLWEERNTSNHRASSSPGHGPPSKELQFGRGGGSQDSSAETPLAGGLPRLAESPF
GCGR (Homo sapiens, UniProt P47871, Q293A), sequence (P47871 26-477 Q293A): as the sequence (P47871 26-477 R199A) above, with A174R, Q268A counted along it
GCGR (Homo sapiens, UniProt P47871, D195A), sequence (P47871 26-477 D195A): as the sequence (P47871 26-477 R199A) above, with D170A, A174R counted along it
GCGR (Homo sapiens, UniProt P47871, Y145A), sequence (P47871 26-477 Y145A): as the sequence (P47871 26-477 R199A) above, with Y120A, A174R counted along it
GCGR (Homo sapiens, UniProt P47871, Y138A), sequence (P47871 26-477 Y138A): as the sequence (P47871 26-477 R199A) above, with Y113A, A174R counted along it
GCGR (Homo sapiens, UniProt P47871, W87A), sequence (P47871 26-477 W87A): as the sequence (P47871 26-477 R199A) above, with W62A, A174R counted along it

Row | Structure (SMILES) | binding Span [1] | IC50 [1, 9] | binding Span [2] | IC50 [2, 9] | Emax [3] | EC50 [4, 10] | Emax ([4]; HEK-293T) | EC50 [5, 10] | Emax ([5]; HEK-293T) | Emax [6] | Emax [7] | Emax [8]
1 | CCCCCCCCCCCCCCCC(=O)N[C@@H](CCC(=O)NCCCC[C@H](NC(=O)[C@H](CC(=O)O)NC(=O)[C@H](CO)NC(=O)[C@@H](NC(=O)[C@H](Cc1ccccc1)NC(=O)[C@@H](NC(=O)CNC(=O)[C@H](CCC(N)=O)NC(=O)C(C)(C)NC(=O)[C@@H](N)Cc1c[nH]cn1)[C@@H](C)O)[C@@H](C)O)C(=O)N[C@@H](CO)C(=O)N[C@@H](CCCCN)C(=O)N[C@@H](Cc1ccc(O)cc1)C(=O)N[C@@H](CC(C)C)C(=O)N[C@@H](CC(=O)O)C(=O)N[C@@H](CCC(=O)O)C(=O)N[C@@H](CCCNC(=N)N)C(=O)N[C@@H](C)C(=O)N[C@@H](C)C(=O)N[C@@H](CCC(N)=O)C(=O)N[C@@H](CC(=O)O)C(=O)N[C@@H](Cc1ccccc1)C(=O)N[C@H](C(=O)N[C@@H](CCC(N)=O)C(=O)N[C@@H](Cc1c[nH]c2ccccc12)C(=O)N[C@@H](CC(C)C)C(=O)N[C@@H](CC(C)C)C(=O)N[C@@H](CC(=O)O)C(=O)NCC(=O)NCC(=O)N1CCC[C@H]1C(=O)N[C@@H](CO)C(=O)N[C@@H](CO)C(=O)NCC(=O)N[C@@H](C)C(=O)N1CCC[C@H]1C(=O)N1CCC[C@H]1C(=O)N1CCC[C@H]1C(=O)N[C@@H](CO)C(N)=O)C(C)C)C(=O)O [Peptide 20] | 10.25 ± 1.71 % WT | 17 nM | 8.73 ± 2.65 % WT | 15.5 nM | 102 ± 2.1% | 0.00832 nM | 99.5 ± 1.63% | 0.0129 nM | 99.7 ± 1.47% | 98.1 ± 1.54% | 101 ± 2.39% | 103 ± 1.79%
2 | CC[C@H](C)[C@H](NC(=O)[C@H](CC(C)C)NC(=O)[C@H](Cc1c[nH]c2ccccc12)NC(=O)[C@H](CCC(N)=O)NC(=O)[C@@H](NC(=O)[C@H](Cc1ccccc1)NC(=O)[C@H](C)NC(=O)[C@H](CCCCNC(=O)COCCOCCNC(=O)COCCOCCNC(=O)CC[C@H](NC(=O)CCCCCCCCCCCCCCCCCCC(=O)O)C(=O)O)NC(=O)[C@H](CCC(N)=O)NC(=O)[C@H](C)NC(=O)[C@@H](NC(=O)[C@H](CCCCN)NC(=O)[C@H](CC(=O)O)NC(=O)[C@H](CC(C)C)NC(=O)C(C)(C)NC(=O)[C@@H](NC(=O)[C@H](CO)NC(=O)[C@H](Cc1ccc(O)cc1)NC(=O)[C@H](CC(=O)O)NC(=O)[C@H](CO)NC(=O)[C@@H](NC(=O)[C@H](Cc1ccccc1)NC(=O)[C@@H](NC(=O)CNC(=O)[C@H](CCC(=O)O)NC(=O)C(C)(C)NC(=O)[C@@H](N)Cc1ccc(O)cc1)[C@@H](C)O)[C@@H](C)O)[C@@H](C)CC)[C@@H](C)CC)C(C)C)C(=O)N[C@@H](C)C(=O)NCC(=O)NCC(=O)N1CCC[C@H]1C(=O)N[C@@H](CO)C(=O)N[C@@H](CO)C(=O)NCC(=O)N[C@@H](C)C(=O)N1CCC[C@H]1C(=O)N1CCC[C@H]1C(=O)N1CCC[C@H]1C(=O)N[C@@H](CO)C(N)=O [Tirzepatide] | 11.88 ± 1.32 % WT |  | 12.31 ± 2.51 % WT |  |  |  |  |  |  |  |  | 
